Measurements as given in ChEMBL document CHEMBL4507268 (2021).

How the values were obtained:
[1] = target: D(1A) dopamine receptor (Homo sapiens) (UniProt P21728); settings: Compound concentration 10.0 uM
[2] = target: T1, MAP kinase-activated protein kinase 5 (Homo sapiens) (UniProt Q8IW41); settings: Compound concentration 1.0 uM
T1 sequence (whole entry): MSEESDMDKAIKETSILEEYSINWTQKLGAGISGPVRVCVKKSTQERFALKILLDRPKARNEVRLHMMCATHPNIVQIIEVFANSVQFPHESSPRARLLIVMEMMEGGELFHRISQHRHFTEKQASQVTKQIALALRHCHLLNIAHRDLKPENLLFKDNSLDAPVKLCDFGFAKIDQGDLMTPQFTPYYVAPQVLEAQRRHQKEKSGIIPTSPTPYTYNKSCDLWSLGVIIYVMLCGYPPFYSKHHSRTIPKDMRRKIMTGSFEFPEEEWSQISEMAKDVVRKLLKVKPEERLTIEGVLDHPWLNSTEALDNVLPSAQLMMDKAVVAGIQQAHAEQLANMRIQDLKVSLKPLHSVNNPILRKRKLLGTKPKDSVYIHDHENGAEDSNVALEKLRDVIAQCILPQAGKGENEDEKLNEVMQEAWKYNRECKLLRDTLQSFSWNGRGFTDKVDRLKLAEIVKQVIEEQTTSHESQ

[3] = target: Mitogen-activated protein kinase kinase kinase kinase 5 (Homo sapiens) (UniProt Q9Y4K4); settings: Compound concentration 1.0 uM
[4] = target: Serine/threonine-protein kinase VRK2 (Homo sapiens) (UniProt Q86Y07); settings: Compound concentration 1.0 uM
[5] = target: Leukocyte tyrosine kinase receptor (Homo sapiens) (UniProt P29376); settings: Compound concentration 1.0 uM
[6] = target: T2, Serine/threonine-protein kinase tousled-like 1 (Homo sapiens) (UniProt Q9UKI8); settings: Compound concentration 1.0 uM
T2 sequence (whole entry): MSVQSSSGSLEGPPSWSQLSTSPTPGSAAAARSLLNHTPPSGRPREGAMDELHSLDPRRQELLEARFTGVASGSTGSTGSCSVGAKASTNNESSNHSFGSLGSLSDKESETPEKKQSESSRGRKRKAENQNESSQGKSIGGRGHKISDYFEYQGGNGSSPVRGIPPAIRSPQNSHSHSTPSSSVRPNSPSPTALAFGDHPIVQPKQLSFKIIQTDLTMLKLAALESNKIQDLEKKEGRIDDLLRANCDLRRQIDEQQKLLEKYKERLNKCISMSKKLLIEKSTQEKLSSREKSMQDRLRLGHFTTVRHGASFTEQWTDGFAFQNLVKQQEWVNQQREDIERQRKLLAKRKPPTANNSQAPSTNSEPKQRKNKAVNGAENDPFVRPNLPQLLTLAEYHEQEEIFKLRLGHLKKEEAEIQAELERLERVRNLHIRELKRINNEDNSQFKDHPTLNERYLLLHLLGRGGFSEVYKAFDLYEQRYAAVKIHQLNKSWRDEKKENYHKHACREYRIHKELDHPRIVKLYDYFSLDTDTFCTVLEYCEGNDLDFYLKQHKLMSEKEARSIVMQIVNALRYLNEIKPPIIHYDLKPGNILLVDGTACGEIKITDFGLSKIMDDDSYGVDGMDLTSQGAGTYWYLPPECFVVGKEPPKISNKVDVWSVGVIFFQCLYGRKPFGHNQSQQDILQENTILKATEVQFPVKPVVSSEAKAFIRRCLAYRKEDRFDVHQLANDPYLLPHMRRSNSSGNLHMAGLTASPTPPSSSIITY

[7] = target: Sodium-dependent serotonin transporter (Homo sapiens) (UniProt P31645); settings: Compound concentration 10.0 uM
[8] = target: Mitogen-activated protein kinase 14 (Homo sapiens) (UniProt Q16539); settings: Compound concentration 1.0 uM
[9] = target: Casein kinase II subunit alpha (Homo sapiens) (UniProt P68400); settings: Compound concentration 1.0 uM
[10] = target: T3, Inhibitor of nuclear factor kappa-B kinase subunit alpha (Homo sapiens) (UniProt O15111); settings: Compound concentration 1.0 uM
T3 sequence (whole entry): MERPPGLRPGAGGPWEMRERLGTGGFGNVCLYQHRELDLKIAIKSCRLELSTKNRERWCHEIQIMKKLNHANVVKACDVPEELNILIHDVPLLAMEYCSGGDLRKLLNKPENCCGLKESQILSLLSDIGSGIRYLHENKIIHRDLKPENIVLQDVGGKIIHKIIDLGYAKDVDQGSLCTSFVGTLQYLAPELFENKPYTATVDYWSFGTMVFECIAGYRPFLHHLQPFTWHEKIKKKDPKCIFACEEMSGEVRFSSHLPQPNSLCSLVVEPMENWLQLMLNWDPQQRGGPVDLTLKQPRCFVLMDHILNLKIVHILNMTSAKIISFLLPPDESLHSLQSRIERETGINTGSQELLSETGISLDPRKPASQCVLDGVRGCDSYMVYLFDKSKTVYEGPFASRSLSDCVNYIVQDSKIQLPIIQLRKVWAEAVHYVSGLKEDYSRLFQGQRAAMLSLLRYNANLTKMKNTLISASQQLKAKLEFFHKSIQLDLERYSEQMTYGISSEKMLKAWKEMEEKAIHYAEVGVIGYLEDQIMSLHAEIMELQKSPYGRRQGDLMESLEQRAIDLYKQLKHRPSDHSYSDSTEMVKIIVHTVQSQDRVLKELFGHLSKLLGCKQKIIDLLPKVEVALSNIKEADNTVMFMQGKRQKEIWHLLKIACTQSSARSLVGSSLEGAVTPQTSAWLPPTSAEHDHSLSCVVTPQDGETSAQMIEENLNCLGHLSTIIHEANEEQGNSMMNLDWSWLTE

[11] = target: G protein-coupled receptor kinase 6 (Homo sapiens) (UniProt P43250); settings: Compound concentration 1.0 uM
[12] = target: T4, Mitogen-activated protein kinase 12 (Homo sapiens) (UniProt P53778); settings: Compound concentration 1.0 uM
T4 sequence (whole entry): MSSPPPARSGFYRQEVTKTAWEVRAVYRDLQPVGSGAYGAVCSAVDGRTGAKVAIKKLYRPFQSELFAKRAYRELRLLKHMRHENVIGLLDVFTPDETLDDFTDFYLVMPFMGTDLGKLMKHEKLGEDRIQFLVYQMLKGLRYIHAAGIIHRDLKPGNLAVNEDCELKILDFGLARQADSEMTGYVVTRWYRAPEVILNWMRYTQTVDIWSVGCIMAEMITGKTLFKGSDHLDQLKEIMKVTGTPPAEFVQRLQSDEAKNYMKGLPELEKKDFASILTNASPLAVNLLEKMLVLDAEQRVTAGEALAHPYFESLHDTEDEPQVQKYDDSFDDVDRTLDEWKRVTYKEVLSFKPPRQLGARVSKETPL

Homo sapiens = species on record: Homo sapiens; settings: Compound concentration 1.0 uM

Sequence of Sodium-dependent serotonin transporter (Homo sapiens) (P31645 whole entry, looked up): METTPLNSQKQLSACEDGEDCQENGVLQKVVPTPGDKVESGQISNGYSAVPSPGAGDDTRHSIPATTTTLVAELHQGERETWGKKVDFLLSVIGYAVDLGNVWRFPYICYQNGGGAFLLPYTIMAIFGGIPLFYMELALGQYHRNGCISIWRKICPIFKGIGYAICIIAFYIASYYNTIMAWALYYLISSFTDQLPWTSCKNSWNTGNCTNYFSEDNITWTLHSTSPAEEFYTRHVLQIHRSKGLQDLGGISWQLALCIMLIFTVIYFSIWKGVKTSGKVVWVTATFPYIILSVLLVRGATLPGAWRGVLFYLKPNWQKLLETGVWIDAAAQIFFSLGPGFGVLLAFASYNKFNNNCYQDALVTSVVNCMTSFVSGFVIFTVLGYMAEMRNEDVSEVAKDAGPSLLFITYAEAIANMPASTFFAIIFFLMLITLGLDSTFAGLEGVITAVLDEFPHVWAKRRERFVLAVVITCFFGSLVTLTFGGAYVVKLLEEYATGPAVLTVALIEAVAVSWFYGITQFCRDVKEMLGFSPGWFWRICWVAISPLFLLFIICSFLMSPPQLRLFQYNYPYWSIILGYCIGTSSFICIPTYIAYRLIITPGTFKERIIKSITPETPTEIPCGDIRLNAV
Sequence of D(1A) dopamine receptor (Homo sapiens) (P21728 whole entry): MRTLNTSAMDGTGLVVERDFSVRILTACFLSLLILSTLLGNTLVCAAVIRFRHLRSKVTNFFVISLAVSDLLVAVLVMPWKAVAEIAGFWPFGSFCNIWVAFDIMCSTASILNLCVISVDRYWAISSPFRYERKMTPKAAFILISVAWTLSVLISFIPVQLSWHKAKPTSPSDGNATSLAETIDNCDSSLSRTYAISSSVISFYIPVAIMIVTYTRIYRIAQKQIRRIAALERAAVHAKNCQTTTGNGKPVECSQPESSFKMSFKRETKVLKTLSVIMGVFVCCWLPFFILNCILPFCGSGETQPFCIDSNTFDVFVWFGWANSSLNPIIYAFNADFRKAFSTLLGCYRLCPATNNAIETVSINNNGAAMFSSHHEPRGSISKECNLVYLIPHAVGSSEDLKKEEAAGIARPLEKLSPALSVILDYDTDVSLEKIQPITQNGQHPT
Sequence of Casein kinase II subunit alpha (Homo sapiens) (P68400 whole entry, looked up): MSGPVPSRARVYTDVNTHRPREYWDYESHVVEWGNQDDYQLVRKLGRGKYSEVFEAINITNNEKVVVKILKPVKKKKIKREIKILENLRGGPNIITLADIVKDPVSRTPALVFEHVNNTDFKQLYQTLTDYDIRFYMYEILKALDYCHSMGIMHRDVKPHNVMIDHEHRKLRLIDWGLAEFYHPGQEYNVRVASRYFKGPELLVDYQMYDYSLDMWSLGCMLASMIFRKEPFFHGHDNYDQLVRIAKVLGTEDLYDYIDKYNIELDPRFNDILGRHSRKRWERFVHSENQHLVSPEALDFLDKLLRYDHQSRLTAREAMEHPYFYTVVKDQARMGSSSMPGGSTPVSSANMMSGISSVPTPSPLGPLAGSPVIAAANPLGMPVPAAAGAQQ
Sequence of Mitogen-activated protein kinase kinase kinase kinase 5 (Homo sapiens) (Q9Y4K4 whole entry, looked up): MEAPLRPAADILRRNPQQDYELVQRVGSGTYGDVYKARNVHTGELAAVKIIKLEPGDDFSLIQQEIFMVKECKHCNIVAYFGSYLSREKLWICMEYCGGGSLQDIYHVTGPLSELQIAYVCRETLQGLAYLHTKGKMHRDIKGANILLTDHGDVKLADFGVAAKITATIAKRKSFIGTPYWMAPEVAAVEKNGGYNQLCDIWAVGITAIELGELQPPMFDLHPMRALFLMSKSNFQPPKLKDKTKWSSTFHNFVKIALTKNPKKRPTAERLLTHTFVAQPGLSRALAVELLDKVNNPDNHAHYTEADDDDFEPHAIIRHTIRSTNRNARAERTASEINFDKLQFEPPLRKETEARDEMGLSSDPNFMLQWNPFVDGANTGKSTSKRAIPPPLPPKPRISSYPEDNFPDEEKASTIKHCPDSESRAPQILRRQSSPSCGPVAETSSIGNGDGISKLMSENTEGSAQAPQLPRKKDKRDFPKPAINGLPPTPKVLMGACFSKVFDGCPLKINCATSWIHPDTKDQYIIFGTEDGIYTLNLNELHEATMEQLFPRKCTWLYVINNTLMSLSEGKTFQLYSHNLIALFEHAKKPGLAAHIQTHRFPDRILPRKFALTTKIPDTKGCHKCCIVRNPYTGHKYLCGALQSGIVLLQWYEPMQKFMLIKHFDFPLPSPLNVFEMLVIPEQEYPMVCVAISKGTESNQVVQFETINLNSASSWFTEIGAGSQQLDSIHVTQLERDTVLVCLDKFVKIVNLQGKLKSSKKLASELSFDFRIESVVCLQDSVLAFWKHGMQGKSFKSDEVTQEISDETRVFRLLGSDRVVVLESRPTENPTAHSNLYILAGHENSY
Sequence of Mitogen-activated protein kinase 14 (Homo sapiens) (Q16539 whole entry): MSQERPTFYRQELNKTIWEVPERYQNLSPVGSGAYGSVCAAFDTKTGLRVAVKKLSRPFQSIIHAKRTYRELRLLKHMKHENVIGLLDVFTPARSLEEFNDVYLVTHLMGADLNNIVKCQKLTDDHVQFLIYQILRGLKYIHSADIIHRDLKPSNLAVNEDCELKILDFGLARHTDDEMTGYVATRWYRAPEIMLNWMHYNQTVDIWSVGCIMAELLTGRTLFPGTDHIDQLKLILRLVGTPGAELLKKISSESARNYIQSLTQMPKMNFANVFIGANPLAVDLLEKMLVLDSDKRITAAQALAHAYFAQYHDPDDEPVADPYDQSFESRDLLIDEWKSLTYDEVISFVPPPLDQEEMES
Sequence of Serine/threonine-protein kinase VRK2 (Homo sapiens) (Q86Y07 whole entry): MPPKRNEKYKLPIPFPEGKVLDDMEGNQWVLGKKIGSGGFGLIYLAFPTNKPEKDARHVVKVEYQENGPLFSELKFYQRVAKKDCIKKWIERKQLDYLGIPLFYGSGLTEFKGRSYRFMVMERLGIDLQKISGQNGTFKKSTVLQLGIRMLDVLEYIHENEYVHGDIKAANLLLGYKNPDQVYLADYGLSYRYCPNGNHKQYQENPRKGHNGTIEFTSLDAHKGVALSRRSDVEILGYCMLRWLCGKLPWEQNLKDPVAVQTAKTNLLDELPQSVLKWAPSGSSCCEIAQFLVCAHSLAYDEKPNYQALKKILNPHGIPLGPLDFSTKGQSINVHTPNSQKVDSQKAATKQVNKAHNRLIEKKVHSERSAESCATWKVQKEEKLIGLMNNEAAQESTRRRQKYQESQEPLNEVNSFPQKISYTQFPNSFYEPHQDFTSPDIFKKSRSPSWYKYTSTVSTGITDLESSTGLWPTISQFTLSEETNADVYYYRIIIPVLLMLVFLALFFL
Sequence of Leukocyte tyrosine kinase receptor (Homo sapiens) (P29376 whole entry): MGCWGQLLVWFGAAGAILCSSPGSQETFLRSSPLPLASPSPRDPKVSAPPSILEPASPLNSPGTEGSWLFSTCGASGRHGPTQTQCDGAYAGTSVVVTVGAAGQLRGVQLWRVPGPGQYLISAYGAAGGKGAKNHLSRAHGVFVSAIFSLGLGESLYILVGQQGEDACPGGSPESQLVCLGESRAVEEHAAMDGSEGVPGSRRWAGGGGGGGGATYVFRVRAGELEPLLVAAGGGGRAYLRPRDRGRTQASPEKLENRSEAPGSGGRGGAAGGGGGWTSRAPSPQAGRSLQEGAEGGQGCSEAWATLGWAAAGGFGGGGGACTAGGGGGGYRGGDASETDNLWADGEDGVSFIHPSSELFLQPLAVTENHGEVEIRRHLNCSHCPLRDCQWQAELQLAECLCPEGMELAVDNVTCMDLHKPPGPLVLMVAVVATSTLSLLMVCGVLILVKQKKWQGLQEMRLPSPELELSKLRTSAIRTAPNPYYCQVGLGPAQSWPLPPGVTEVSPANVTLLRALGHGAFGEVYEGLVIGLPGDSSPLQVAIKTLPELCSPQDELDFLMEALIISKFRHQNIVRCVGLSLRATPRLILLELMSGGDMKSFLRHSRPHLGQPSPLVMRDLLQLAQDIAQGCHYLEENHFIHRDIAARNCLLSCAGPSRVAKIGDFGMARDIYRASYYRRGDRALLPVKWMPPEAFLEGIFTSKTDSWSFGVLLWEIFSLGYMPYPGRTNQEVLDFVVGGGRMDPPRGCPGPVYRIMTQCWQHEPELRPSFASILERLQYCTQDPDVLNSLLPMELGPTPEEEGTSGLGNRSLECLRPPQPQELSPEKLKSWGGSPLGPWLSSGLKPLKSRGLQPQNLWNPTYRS
Sequence of G protein-coupled receptor kinase 6 (Homo sapiens) (P43250 whole entry, looked up): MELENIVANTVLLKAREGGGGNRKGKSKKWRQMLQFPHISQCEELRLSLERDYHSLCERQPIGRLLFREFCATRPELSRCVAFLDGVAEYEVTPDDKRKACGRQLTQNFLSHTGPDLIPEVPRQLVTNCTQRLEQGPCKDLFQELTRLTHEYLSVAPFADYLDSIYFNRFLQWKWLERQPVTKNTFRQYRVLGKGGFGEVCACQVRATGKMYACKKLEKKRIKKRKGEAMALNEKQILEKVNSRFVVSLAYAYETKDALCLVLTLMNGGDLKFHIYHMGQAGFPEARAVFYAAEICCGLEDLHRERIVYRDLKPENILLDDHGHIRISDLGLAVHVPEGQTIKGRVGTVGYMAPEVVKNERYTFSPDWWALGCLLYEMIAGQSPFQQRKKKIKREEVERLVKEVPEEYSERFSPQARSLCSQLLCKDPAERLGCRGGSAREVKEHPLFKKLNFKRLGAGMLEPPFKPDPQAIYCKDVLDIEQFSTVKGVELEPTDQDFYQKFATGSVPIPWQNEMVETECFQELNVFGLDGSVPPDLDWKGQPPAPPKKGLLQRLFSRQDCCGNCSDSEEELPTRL

Cc1nc(C2CCN(C(=O)c3ccc(OC(F)(F)F)cc3N)CC2)c2ncc(N3CCN(C)CC3)cc2n1 [BAY-693]
inactive: inhibition [1] 2.66%

CN1CCN(c2cnc3c(C4CCN(C(=O)c5ccc(OC(F)(F)F)cc5N)CC4)ncnc3c2)CC1 [BAY-885]
inactive: % residual kinase activity [2] 109% | % residual kinase activity [3] 99% | % residual kinase activity [4] 106% | % residual kinase activity [5] 103% | % residual kinase activity [6] 106% | inhibition [7] 32.4% | % residual kinase activity [8] 113% | % residual kinase activity [9] 92% | % residual kinase activity [10] 99% | % residual kinase activity [11] 111% | % residual kinase activity [12] 112% | % residual kinase activity (Homo sapiens) 107%
